Data set [1] deals with bacterial (E. coli) inflammatory lesions (pus capsule). Nature of the data set: Biodistribution (pus capsule to contralateral tissue ratio) in rats with bacterial infection. Type of data set: in vivo. As for the experimental part: (§1) A frozen sample of E. coli bacteria (clinical isolate; ATCC 9339) was used to inoculate a 10 ml trypticase soy medium (trypticase soy broth, BBL #11768, 30 g/L water), and the tube was incubated overnight at […] This culture was used to grow single colonies by streaking the sample on agar plates (100 mm petri dishes each containing 15 ml of […] in the same medium). Good colonies develop in 10-11 hours at 37° C. The agar plates containing bacterial colonies were stored upside down at 4° C. A single colony of bacteria from the agar plate was used to inoculate 10 ml trypticase soy medium, and the tube was incubated overnight at 37° C. with vigorous shaking. Two ml of this overnight culture was transferred into 100 ml trypticase soy medium and the sample incubated at 37° C. with vigorous shaking until the culture reached an OD600 of ~0.8 (in about 2 hrs). This 100 ml culture contained ~6.4×10^10 bacterial cells (1 OD600 =8×10^8 cells/ml).
(§2) The culture was centrifuged at 5500 rpm for 5 min at 4° C. in a Sorvall SS-34 rotor, the bacterial pellet resuspended in saline to give ~2.5×10^9 bacteria/ml, and 0.1 ml of resuspended cells injected into the left thigh muscle of each anesthetized rat.
No-carrier added radioiodinated deoxyuridine (^125 IUdR) was synthesized by the method described in the above disclosure. Commercially available gallium-67 citrate of known biodistribution characteristics was obtained, for comparison to ^125 IUdR. 24 hrs after each rat described in Example 2 received an intramuscular injection of E. coli or after each rat described in Example 1 received an intramuscular injection of turpentine oil (to permit comparison of activity in a bacterial inflammation lesions to activity in a sterile inflammation lesions) in the left rear thigh, each rat received either ^125 IUdR (about 5 μCi/rat) or gallium-67 citrate (about 10 μCi/rat) suspended in 0.1 ml saline, by injection into the tail vein.
At one, three and 24 hrs after ^125 IUdR or gallium-67 citrate administration, the animals from each group were anesthetized, blood collected via cardiac puncture, urine aspirated from the urinary bladder, and the rats humanely sacrificed. The biodistribution of each radiopharmaceutical (measured as a function of the % injected dose/gram body weight) was then determined in various normal tissues and organs, as well as the left and right legs, the pus capsule formed within the leg and in contralateral muscle tissues (i.e., background tissues unaffected by inflammation) of equivalent weight.
To determine the distribution of each radiopharmaceutical in various tissues of each rat (i.e., the "biodistribution" of each radiopharmaceutical), samples of background tissues and organs (blood, lung, liver, spleen, kidney, muscle and intestine), of target tissue (the pus capsule formed in the leg) and of contralateral muscle tissue (background tissue adjacent to target tissue) were obtained from each rat and weighed. Radioactivity in each sample was measured in a well-type gamma counter (from LKB, Wallac Oy, Finland). To correct for radioactive decay and permit calculation of activity in each organ or tissue as a fraction of the injected dosage of radiopharmaceutical, aliquots of the injected doses were counted at the same time that radioactivity in each sample was determined. The results were measured as a function of the percentage of injected dose/gram (% ID/g). For further reference regarding measurements of biodistribution of radiopharmaceuticals, particularly in blood, those of ordinary skill in the art may wish to refer to Baker et al., "The Laboratory Rat" (Acad.Press N.Y., 1980).
Ab = %ID/g over contralateral muscle

The subject of data set [2] is sterile inflammatory lesions (pus capsule; turpentine oil). Nature of the data set: Biodistribution (pus capsule to contralateral tissue ratio) in rats with sterile inflammation.
Data set [3] has the same test system. Put plainly: Gamma camera imaging of rats with sterile inflammation. Type of data set: in vivo, Male Sprague-Dawley rats. The following applies: for Figure of Merit (FOM), equation (1): 0.2 mCi ^67 Ga-citrate; for Figure of Merit (FOM), equation (1) / Pus Capsule to Contralateral Tissue (T/B) Ratio, gamma camera imaging: 1.5 mCi/rat ^123 IUdR; for Figure of Merit (FOM), equation (1) / Pus Capsule to Contralateral Tissue (T/B) Ratio, gamma camera imaging / Figure of Merit (FOM), equation (2): n=4, mean ± SD; for Pus Capsule to Contralateral Tissue (T/B) Ratio, gamma camera imaging: 0.2 mCi/rat ^67 Ga. As for the experimental part: Male Sprague-Dawley rats weighing between 150-200g were obtained from the Charles River Breeding Laboratories in Burlington, Mass. […] To anaesthetize the animals during testing, ketamine (40 mg/kg) and xylazine (10 mg/kg) were administered intra peritoneally (1.0 ml/kg) prior to surgical procedures. For the imaging studies, each animal received 1.5 ml/kg of a mixture of ketamine (75 mg/kg), xylazine (39 mg/kg) and acepromazine (0.75 mg/kg).
To induce a localized sterile inflammation, 0.1 ml of turpentine oil (Rectified Turpentine Oil for medical use, Gentry Corporation, Fair Lawn, N.J.) was injected into the left thigh muscle of anesthetized rats.
(§3) A further set of rats prepared as described in Examples 1 and 2 received intravenous injections of either ^123 IUdR (at a dose of about 1.5 mCi/rat) or gallium-67 citrate (at a dose of about 0.2 mCi/rat). After 1, 3 and 24 hours, rats from each group were anesthetized and imaged using a gamma camera (the General Electric STARCAM™ 400 fitted with parallel hole medium collimator). Anterior images were obtained 10^6 counts/frame except for the 24 h period for ^123 IUdR where a 15 min scan was carried out. A 20% window was present over the 159 keV photopeaks of ^67 Ga (93 kev, 184 keV, and 298 keV).
(§4) Regions of interest (ROI) were drawn over the inflamed areas (3×4 pixel) and over the contralateral area in each rat. Total counts in these regions were used to calculate Target to Background (T/B) ratios and to calculate Figure of Merit (FOM; statistical significance) values using either of the following equations:
(§5) FOM=(At -Ab)^2 /(At +Ab) (1)
(§6) At =counts in ROI (3×4) over pus capsule; and
(§7) Ab =counts in ROI (3×4) over contralateral muscle.
(§8) Equation (1) is derived from the Report of the National Council on Radiation Protection and Measurements, Nuclear Medicine, "Factors Influencing the Choice and Use of Radionuclides in Diagnosis and Therapy", Report No. 70, p.79 (NRCP, Bethesda, Md., 1982). Equation (2) is derived from Rubin et al., J. Nucl. Med. 30:385-389, 1989. For purposes of reference, the disclosures of each of these publications is incorporated herein.

Data set [4] deals with bacterial (E. coli) inflammatory lesions (pus capsule). Nature of the data set: Gamma camera imaging of rats with bacterial infection. The following applies: for Figure of Merit (FOM), equation (1): 0.2 mCi ^67 Ga-citrate (n=3); for Figure of Merit (FOM), equation (1) / Pus Capsule to Contralateral Tissue (T/B) Ratio, gamma camera imaging: 1.5 mCi/rat ^123 IUdR (n=4); for Figure of Merit (FOM), equation (1) / Pus Capsule to Contralateral Tissue (T/B) Ratio, gamma camera imaging / Figure of Merit (FOM), equation (2): mean ± SD; for Pus Capsule to Contralateral Tissue (T/B) Ratio, gamma camera imaging: 0.2 mCi/rat ^67 Ga (n=3); for Figure of Merit (FOM), equation (2): n=3 (^67 Ga), n=4 (^123 IUdR). On the set-up: key to Figure of Merit (FOM), equation (1): FOM=(At-Ab)^2/(At+Ab), from total counts target vs background. The class given is in vivo. As for the experimental part:
as §1, §2, §3, §4, §5, §6, §7, §8

On to `O=c1[nH]c(=O)n([C@H]2C[C@H](O)[C@@H](CO)O2)cc1[125I]` [^125 IUdR], for which the “radioscintigraphic detection by biodistribution T/B ratios, compared with ^67 Ga (in words)” value was “better” in data set [1] (bacterial infection, 1 h, 3 h, and 24 h); “much better than ^67 Ga” in data set [2] (sterile inflammation, 3 h and 24 h). The “concentration within lesion (pus capsule) vs contralateral tissues (in words)” value in data set [1] (rat, in vivo) is recorded as “to a greater extent than in the contralateral tissues”; in data set [2] (sterile inflammation (turpentine oil)), “to a greater extent than in the contralateral tissues”. In addition, the “time of accumulation in target (inflamed) tissues” value in data set [1] (rat, in vivo) is no more than 1 h.

As to `O=c1[nH]c(=O)n([C@H]2C[C@H](O)[C@@H](CO)O2)cc1[123I]` [^123 IUdR], the “detection of the lesion in scintigraphic images (in words)” value in data set [3] (1, 3, and 24 h, i.v.) is listed as “can clearly detect the lesion”; in data set [4] (1, 3, and 24 h, i.v.), “can clearly detect the lesion”. Moreover, the “Figure of Merit (FOM), equation (1)” value in data set [3] (1 h, i.v.) was 14444 ± 559; in data set [3] (3 h, i.v.), 750 + 268; in data set [3] (24 h, i.v.), 69 + 52; in data set [4] (1 h, i.v.) it was 1770 ± 598; in data set [4] (3 h, i.v.) it was 1507 ± 775; in data set [4] (24 h, i.v.), 214 + 135. The “Pus Capsule to Contralateral Tissue (T/B) Ratio, gamma camera imaging” value amounted to 4.13 ± 1.06 in data set [3] (1 h, i.v.); 3.33 ± 0.92 in data set [3] (3 h, i.v.); 3.07 ± 0.930 in data set [3] (24 h, i.v.); 3.72 ± 1.06 in data set [4] (1 h, i.v.); 3.53 ± 0.80 in data set [4] (3 h, i.v.); 5.35 ± 2.37 in data set [4] (24 h, i.v.). The “Figure of Merit (FOM), equation (2)” value was 3.13 ± 0.53 in data set [3] (1 h, i.v.); 2.33 ± 0.46 in data set [3] (3 h, i.v.); 2.07 ± 1.46 in data set [3] (24 h, i.v.); 2.72 ± 0.53 in data set [4] (1 h, i.v.); 2.53 ± 0.40 in data set [4] (3 h, i.v.); 4.35 ± 1.19 in data set [4] (24 h, i.v.). The “efficacy by imaging T/B ratio, comparison of agents (in words)” value in data set [3] (3 hrs) is on record as “equal”. Besides, in data set [3] (FIGS. 4 and 8 vs FIGS. 3 and 7), the “accumulation in target tissues, rate vs gallium-67 citrate (in words)” value is given as “more quickly than did gallium-67 citrate”. Also, the “radioscintigraphic detection by FOM, comparison of agents (in words)” value in data set [3] (early (i.e., 1 h)) is given as “superior agent”; in data set [4] (1 h, 3 hrs, and 24 hrs) it was “superior agent”. The “radioscintigraphic detection by imaging T/B ratio, comparison of agents (in words)” value in data set [3] (early (i.e., 1 h)) was “superior to gallium-67”; in data set [4] (1 h, 3 hrs, and 24 hrs), “superior to gallium-67”.

Values taken from patent publication US5811073A, “Method for radioisotopic detection and localization of inflammation in a host” (President and Fellows of Harvard College, priority 1995, dated 1998).
